Laboratory results: paper PMC7663979, “Design of Novel 4-Aminobenzofuroxans and Evaluation of Their Antimicrobial and Anticancer Activity” (International Journal of Molecular Sciences, 2020)
Several values for one entry are separate records, joined by “and”; a condition that tells them apart may be missing. Identical values can stand only once. Like-named read-outs stand apart in the source and are kept apart here.

Legend:
PANC-1 = experiment: Cytotoxicity assay (Cytell Cell Viability BioApp), PANC-1; type: cell-based, human; settings: for IC50: Homo sapiens, PANC-1, mean ± SD, three experiments; for SI PANC-1: selectivity index = IC50 normal cells (Chang liver) / IC50 cancer cells, n.s. = no selectivity
Chang Liver = experiment: Cytotoxicity assay (Cytell Cell Viability BioApp), normal Chang liver cells; type: cell-based; settings: Homo sapiens, mean ± SD, three experiments, read-out: IC50 Chang Liver (normal cell line)
M-HeLa cells [1] = experiment: Mitochondrial membrane potential, JC-10, flow cytometry; type: cell-based, human; settings: ≥ IC 50 concentrations
Procedure: (§1) Cell Culture. M-HeLa cells at 10^6 cells/ well in a final volume of 2 mL were seeded into 6-well plates. After 24 h of incubation, various concentrations of compounds 3c and 3f were added to wells.
The cells were harvested at 2000 rpm for 5 min and, then, washed twice with ice-cold PBS, followed by resuspension in JC-10 (10 µg/mL) and incubation at 37 °C for 10 min. After the cells were rinsed three times and suspended in PBS, the JC-10 fluorescence was observed by flow cytometry.

MCF7 = experiment: Cytotoxicity assay (Cytell Cell Viability BioApp), MCF7; type: cell-based, human; settings: for IC50: Homo sapiens, MCF7, mean ± SD, three experiments; for SI MCF7: selectivity index = IC50 normal cells (Chang liver) / IC50 cancer cells, n.s. = no selectivity
T98G = experiment: cells; type: cell-based, human; settings: for IC50: Homo sapiens, T98G, read-out: IC50 T98G; for SI T98G: selectivity index = IC50 normal cells (Chang liver) / IC50 cancer cells, n.s. = no selectivity
M-HeLa = experiment: Cytotoxicity assay (Cytell Cell Viability BioApp), M-HeLa; type: cell-based, human; settings: for IC50: Homo sapiens, M-HeLa, mean ± SD, three experiments; for SI M-HeLa: selectivity index = IC50 normal cells (Chang liver) / IC50 cancer cells, n.s. = no selectivity
[2] = system: Vibrio aquamarinus DSM 26054; set-up: method as in PMID 31450696; settings: control = 100%, data first published in ref 40, cited from earlier work
M-HeLa cells [3] = experiment: Cell apoptosis analysis by flow cytometry (annexin V-Alexa Fluor 647 / propidium iodide); type: cell-based, human; settings: 24 h
Procedure: as §1
Cell Apoptosis Analysis. The cells were harvested at 2000 rpm for 5 min and, then, washed twice with ice-cold PBS, followed by resuspension in binding buffer 100 μL. Next, the samples were incubated with 0.35 μL of annexin V-Alexa Fluor 647 and 0.1 μL of propidium iodide for 40 min at room temperature in the dark. Finally, the cells were analyzed by flow cytometry (Guava easyCyte, MERCK, Kenilworth, NJ, USA). The experiments were repeated three times.

M-HeLa cells [4] = experiment: Cell cycle analysis, propidium iodide, flow cytometry; type: cell-based, human; settings: 15 μM, 24 h; control cells 34.28%
Procedure: as §1
The DNA content and cell-cycle distribution after […] were estimated by flow cytometry. Cell seeding, drug treatment and ethanol fixation were similar to cell proliferation assay. After washing with PBS, […] were suspended in 150 μL of PBS, then 0.5 mL phosphate-citrate buffer (0.05 M, pH = 4.0) was added and the suspension was incubated at room temperature for 5 min to facilitate the extraction of low molecular weight DNA. Following centrifugation the cells were resuspended in 150 μL DNA staining solution (20 μg/mL propidium iodide, 200 μg/mL […], and 0.1% Triton X-100) and incubated in the CO2 incubator (37 °C for 30 min). Cell cycle distribution was determined by fluorescence-activated cell sorting analysis of propidium iodide-stained ethanol-fixed cells using a Guava EasyCyte (Guava easyCyte, MERCK, Kenilworth, NJ, USA).

Structure (SMILES): O=[N+]([O-])c1c(Cl)cc2c(no[n+]2[O-])c1NCCCN1CCOCC1 [Compound 5c, 6-chloro-4-((3-morpholinopropyl)amino)-5-nitrobenzofuroxan]
- IC50 (PANC-1): 38 ± 2.9 µM
- SI PANC-1 (PANC-1): >2.6
- IC50 (Chang Liver): > 100 µM
- intensity of red fluorescence (JC-10) compared to the control (M-HeLa cells [1]): did not change significantly
- IC50 (MCF7): > 100 µM
- SI MCF7 (MCF7): n.s.
- IC50 (T98G): > 100 µM
- SI T98G (T98G): n.s.
- IC50 (M-HeLa): 49.3 ± 3.9 µM
- SI M-HeLa (M-HeLa): >2

Structure (SMILES): CC(C)c1ccc(Nc2c([N+](=O)[O-])cc([N+](=O)[O-])c3no[n+]([O-])c23)cc1 [Compound 6, 7-(4-isopropylphenylamino)-4,6-dinitrobenzofuroxan]
- melting point: 110 to 111 °C

Structure (SMILES): O=[N+]([O-])c1c(Cl)cc2c(no[n+]2[O-])c1Nc1cccc(O)c1 [Compound 3f, 6-chloro-4-((3-hydroxyphenyl)amino)-5-nitrobenzofuroxan]
- IC50 (PANC-1): > 100 µM
- SI PANC-1 (PANC-1): n.s.
- IC50 (Chang Liver): 64.4 ± 5.7 µM
- Biofilm Formation, % ([2]; compound concentration 1 × 10^−4 M): 98.97%
- Biofilm Formation, % ([2]; compound concentration 1 × 10^−5 M): 96.57%
- Biofilm Formation, % ([2]; compound concentration 1 × 10^−6 M): 43.56% and 43.56 * %
- Biofilm Formation, % ([2]; compound concentration 1 × 10^−7 M): 11.34% and 11.34 * %
- Biofilm Formation, % ([2]; compound concentration 1 × 10^−8 M): 9.31% and 9.31 * %
- Biofilm Formation, % ([2]; compound concentration 1 × 10^−9 M): 66.58%
- D—dead cells (M-HeLa cells [3]; 10 μM): 5.03%
- Ea—early apoptotic cells (M-HeLa cells [3]; 10 μM): 14.46%
- La—late apoptotic cells (M-HeLa cells [3]; 10 μM): 12.79%
- L—living cells (M-HeLa cells [3]; 10 μM): 67.72%
- D—dead cells (M-HeLa cells [3]; 15 μM): 8.16%
- Ea—early apoptotic cells (M-HeLa cells [3]; 15 μM): 17.59%
- La—late apoptotic cells (M-HeLa cells [3]; 15 μM): 16.83%
- L—living cells (M-HeLa cells [3]; 15 μM): 57.42%
- IC50 (MCF7): 8.1 ± 0.7 µM
- SI MCF7 (MCF7): 8.0
- IC50 (T98G): 59.8 ± 4.8 µM
- SI T98G (T98G): 1.1
- IC50 (M-HeLa): 16 ± 1.3 µM
- SI M-HeLa (M-HeLa): 4.0
- cells in G0/G1 phase (G1) (M-HeLa cells [4]): 66.8%

Structure (SMILES): O=[N+]([O-])c1c(Cl)cc2c(no[n+]2[O-])c1N1CCCC1 [Compound 5g, 6-chloro-5-nitro-4-(pyrrolidin-1-yl)benzofuroxan]
- IC50 (PANC-1): > 100 µM
- SI PANC-1 (PANC-1): n.s.
- IC50 (Chang Liver): > 100 µM
- intensity of red fluorescence (JC-10) compared to the control (M-HeLa cells [1]): did not change significantly
- IC50 (MCF7): > 100 µM
- SI MCF7 (MCF7): n.s.
- IC50 (T98G): > 100 µM
- SI T98G (T98G): n.s.
- IC50 (M-HeLa): > 100 µM
- SI M-HeLa (M-HeLa): n.s.
